Where a name gives a salt, the structure may show the parent alone. Read-outs that look alike come from different tables or passages of the source.
How the values were obtained:
S. marcescens No. 16-2 = assay: in vitro antibacterial activity, agar plate dilution method (MIC); format: cell-based; settings: Serratia marcescens, NO.162, 16 h
How it was run: (§1)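 Agar dilution: MH agar + graded drug conc.; inoculum 10^6 CFU/ml (overnight MH broth culture, one loopful); 37° C., 16 h; MIC, μg/ml.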

S. marcescens IAM 1184 = assay: as above; format: cell-based; settings: Serratia marcescens, IAM1184, 16 h, read-out: Minimum Inhibitory Concentration (MIC)
How it was run: as §1

E. cloacae Nek 39 = assay: as above; format: cell-based; settings: Enterobacter cloacae, NEK39, 16 h, 10^6 CFU/ml
How it was run: as §1

E. coli GN5482 = assay: as above; format: cell-based; settings: Escherichia coli, GN5482, 16 h, read-out: Minimum Inhibitory Concentration (MIC)
How it was run: as §1

S. aureus 209P NIHJ-JC1 = assay: as above; format: cell-based; settings: Staphylococcus aureus, 16 h, 10^6 CFU/ml, 37° C., 16 hours
How it was run: as §1

E. cloacae 963 = assay: as above; format: cell-based; settings: 10^6 CFU/ml
How it was run: as §1

P. vulgaris No. 33 = assay: as above; format: cell-based; settings: Proteus vulgaris, 10^6 CFU/ml
How it was run: as §1

P. vulgaris HX-19 = assay: as above; format: cell-based; settings: Proteus vulgaris, HX19, 16 h, P. vulgaris HX-19; 10^6 CFU/ml; read-out: Minimum Inhibitory Concentration (MIC)
How it was run: as §1

K. pneumoniae PCI-602 = assay: as above; format: cell-based; settings: Klebsiella pneumoniae, PCI602, 16 h, 10^6 CFU/ml
How it was run: as §1

K. pneumoniae No. 42 = assay: as above; format: cell-based; settings: Klebsiella pneumoniae, 10^6 CFU/ml
How it was run: as §1

K. oxytoca GN10650 = assay: as above; format: cell-based; settings: Klebsiella oxytoca, 10^6 CFU/ml
How it was run: as §1

E. coli NIHJ JC2 = assay: as above; format: cell-based; settings: Escherichia coli
How it was run: as §1

M. morganii GN5407 = assay: as above; format: cell-based; settings: Morganella morganii, GN5407, 16 h, read-out: Minimum Inhibitory Concentration (MIC), *M. morganii GN5407, lactamase-producing strain; 10^6 CFU/ml
How it was run: as §1

Ps. cepacia 23 = assay: as above; format: cell-based, Pseudomonas cepacia; settings: read-out: Minimum Inhibitory Concentration (MIC)
How it was run: as §1

A. calcoaceticus No. 4 = assay: as above; format: cell-based, Acinetobacter calcoaceticus; settings: Acinetobacter calcoaceticus, NO.4, 16 h, 10^6 CFU/ml
How it was run: as §1

E. coli CSH2 (RK1) = assay: microbe, parasite or virus in culture; format: cell-based; settings: Escherichia coli, 16 h, read-out: Minimum Inhibitory Concentration (MIC), *E. coli CSH2 (RK1), lactamase-producing strain; 10^6 CFU/ml
How it was run: as §1

E. coli CSH(RE45) = assay: microbe, parasite or virus in culture; format: cell-based; settings: Escherichia coli, 16 h, read-out: Minimum Inhibitory Concentration (MIC), *E. coli CSH(RE45), lactamase-producing strain; 10^6 CFU/ml
How it was run: as §1

Ps. aeruginosa AK 109 = assay: in vitro antibacterial activity, agar plate dilution method (MIC); format: cell-based, Pseudomonas aeruginosa; settings: Pseudomonas aeruginosa, AK109, 16 h, Ps. aeruginosa AK 109; 10^6 CFU/ml; read-out: Minimum Inhibitory Concentration (MIC)
How it was run: as §1

Ps. aeruginosa AKR17 = assay: as above; format: cell-based, Pseudomonas aeruginosa; settings: Pseudomonas aeruginosa, 16 h; Ps. aeruginosa AKR17; 10^6 CFU/ml; read-out: Minimum Inhibitory Concentration (MIC)
How it was run: as §1

Ps. aeruginosa IF03445 = assay: as above; format: cell-based, Pseudomonas aeruginosa; settings: Pseudomonas aeruginosa, 10^6 CFU/ml
How it was run: as §1

[1] = *E. cloacae Nek 39, lactamase-producing strain, read-out: Minimum Inhibitory Concentration (MIC)
[2] = S. aureus 209P NIHJ-JC1, read-out: Minimum Inhibitory Concentration (MIC)
[3] = Burkholderia cepacia, 16 h, Ps. cepacia 23, 10^6 CFU/ml
[4] = A. calcoaceticus No. 4, read-out: Minimum Inhibitory Concentration (MIC)
[5] = 16 h, Ps. aeruginosa IF03445, read-out: Minimum Inhibitory Concentration (MIC)
[6] = read-out: Minimum Inhibitory Concentration (MIC), *S. marcescens No. 16-2, lactamase-producing strain, 10^6 CFU/ml
[7] = read-out: Minimum Inhibitory Concentration (MIC), S. aureus 209P NIHJ-JC1
[8] = Enterobacter cloacae, 963, 16 h, read-out: Minimum Inhibitory Concentration (MIC), E. cloacae 963
[9] = NO.33, 16 h, read-out: Minimum Inhibitory Concentration (MIC), *P. vulgaris No. 33, lactamase-producing strain
[10] = read-out: Minimum Inhibitory Concentration (MIC), K. pneumoniae PCI-602
[11] = NO.42, 16 h, read-out: Minimum Inhibitory Concentration (MIC), *K. pneumoniae No. 42, lactamase-producing strain
[12] = GN10650, 16 h, read-out: Minimum Inhibitory Concentration (MIC), *K. oxytoca GN10650, lactamase-producing strain
[13] = NIHJJC2, 16 h, read-out: Minimum Inhibitory Concentration (MIC), E. coli NIHJ JC2, 10^6 CFU/ml, 37° C.
[14] = read-out: Minimum Inhibitory Concentration (MIC), A. calcoaceticus No. 4
[15] = read-out: Minimum Inhibitory Concentration (MIC), *E. cloacae Nek 39, lactamase-producing strain

Structure (SMILES)	MIC (E. cloacae Nek 39; [1])	MIC (E. coli GN5482)	MIC (S. aureus 209P NIHJ-JC1; [2])	MIC (P. vulgaris HX-19)	MIC (M. morganii GN5407)	MIC (Ps. cepacia 23; [3])	MIC (A. calcoaceticus No. 4; [4])	MIC (E. coli CSH2 (RK1))	MIC (E. coli CSH(RE45))	MIC (Ps. aeruginosa AK 109)	MIC (Ps. aeruginosa AKR17)	MIC (Ps. aeruginosa IF03445; [5])	MIC (S. marcescens No. 16-2; [6])	MIC (S. marcescens IAM 1184)	MIC (E. cloacae 963; [8])	MIC (P. vulgaris No. 33; [9])	MIC (K. pneumoniae PCI-602; [10])	MIC (K. pneumoniae No. 42; [11])	MIC (K. oxytoca GN10650; [12])	MIC (E. coli NIHJ JC2; [13])	also measured
CO/N=C(\C(=O)N[C@@H]1C(=O)N2C(C(=O)O)=C(CSc3nnc(-c4ccc(O)cc4)s3)CS[C@H]12)c1csc(N)n1 [compound 7, 7β-[2-(2-aminothiazol-4-yl)-2methoxyiminoacetamido]-3-[5-(4-hydroxyphenyl-1,3,4-thiadiazol-2-yl)thiomethyl-3-cephem-4-carboxylic acid trifluoroacetate, reference compound]	3.12 µg/mL	0.78 µg/mL	0.39 µg/mL	< 0.006 µg/mL	0.78 µg/mL	3.12 µg/mL	1.56 µg/mL	0.2 µg/mL	0.2 µg/mL	25 µg/mL	> 100 µg/mL	25 µg/mL									MIC (S. marcescens No. 16-2; *S. marcescens No. 16-2, lactamase-producing strain, 10^6 CFU/ml, read-out: Minimum Inhibitory Concentration (MIC)): 3.12 µg/mL; MIC (S. marcescens IAM 1184; S. marcescens IAM 1184, 10^6 CFU/ml): 0.39 µg/mL; MIC (E. cloacae 963; Enterobacter cloacae, 16 h, E. cloacae 963, read-out: Minimum Inhibitory Concentration (MIC)): 1.56 µg/mL; MIC (P. vulgaris No. 33; 16 h, *P. vulgaris No. 33, lactamase-producing strain, read-out: Minimum Inhibitory Concentration (MIC)): 1.56 µg/mL; MIC (K. pneumoniae PCI-602; K. pneumoniae PCI-602, read-out: Minimum Inhibitory Concentration (MIC)): < 0.006 µg/mL; MIC (K. pneumoniae No. 42; 16 h, *K. pneumoniae No. 42, lactamase-producing strain, read-out: Minimum Inhibitory Concentration (MIC)): 1.56 µg/mL; MIC (K. oxytoca GN10650; 16 h, *K. oxytoca GN10650, lactamase-producing strain, read-out: Minimum Inhibitory Concentration (MIC)): 3.12 µg/mL; MIC (E. coli NIHJ JC2; NIHJJC2, E. coli NIHJ JC2, 10^6 CFU/ml, 37° C., 16 hours, read-out: Minimum Inhibitory Concentration (MIC)): 0.39 µg/mL
CC(C)(O/N=C(\C(=O)N[C@@H]1C(=O)N2C(C(=O)O)=C(CSc3nnc(-c4ccc(O)cc4)s3)CS[C@H]12)c1csc(N)n1)C(=O)O [compound 8, disodium 7β-[2-(2-aminothiazol-4-yl)-2-(1-carboxylate-1-methylethoxyimino)acetamido]-3-[5-(4-hydroxyphenyl)-1,3,4-thiadiazol-2-yl)thiomethyl-3-cephem-4-carboxylate, reference compound]	25 µg/mL	3.12 µg/mL		< 0.006 µg/mL	1.56 µg/mL			0.78 µg/mL	0.78 µg/mL	25 µg/mL	> 100 µg/mL	25 µg/mL	6.25 µg/mL	0.78 µg/mL	6.25 µg/mL	0.2 µg/mL	0.1 µg/mL	3.12 µg/mL	6.25 µg/mL	3.12 µg/mL	MIC (S. aureus 209P NIHJ-JC1; [7]): 6.25 µg/mL; MIC (Ps. cepacia 23; Burkholderia cepacia, 23, 16 h): 6.25 µg/mL; MIC (A. calcoaceticus No. 4; [14]): 3.12 µg/mL
C#CCO/N=C(\C(=O)N[C@@H]1C(=O)N2C(C(=O)O)=C(CSc3nnc(-c4ccc(O)c(O)c4)o3)CS[C@H]12)c1csc(N)n1 [compound 9, sodium 7β-[2-(2-aminothiazol-4-yl)-2-(2-propynyloxyimino)acetamido]-3-[5-(3,4-dihydroxyphenyl)-1,3,4-oxadiazol-2-yl]thiomethyl-3-cephem-4carboxylate]		0.39 µg/mL		< 0.006 µg/mL	0.0125 µg/mL	0.05 µg/mL		0.0125 µg/mL	0.0125 µg/mL	0.2 µg/mL	> 100 µg/mL		6.25 µg/mL	0.0125 µg/mL	0.0125 µg/mL	0.025 µg/mL	0.0125 µg/mL	0.025 µg/mL	6.25 µg/mL	0.1 µg/mL	MIC (E. cloacae Nek 39; [15]): 0.1 µg/mL; MIC (S. aureus 209P NIHJ-JC1; [7]): 0.78 µg/mL; MIC (A. calcoaceticus No. 4; [14]): 0.1 µg/mL; MIC (Ps. aeruginosa IF03445; IF03445, 16 h, read-out: Minimum Inhibitory Concentration (MIC), Ps. aeruginosa IF03445): 1.56 µg/mL
CO/N=C(\C(=O)N[C@@H]1C(=O)N2C(C(=O)O)=C(CSc3nc(-c4ccccc4)cs3)CS[C@H]12)c1csc(N)n1 [compound 9, sodium 7μ-[2-(2-aminothiazol-4-yl)-2-methoxyiminoacetamido]-3-(4-phenylthiazol-2-yl)-thiomethyl-3-cephem-4-carboxylate, reference compound]		0.39 µg/mL	0.1 µg/mL	< 0.006 µg/mL	0.78 µg/mL		25 µg/mL	0.39 µg/mL	0.78 µg/mL	25 µg/mL	> 100 µg/mL	25 µg/mL		0.39 µg/mL	1.56 µg/mL	0.78 µg/mL	< 0.006 µg/mL	1.56 µg/mL	3.12 µg/mL	0.78 µg/mL	MIC (S. marcescens No. 16-2; read-out: Minimum Inhibitory Concentration (MIC)): 3.12 µg/mL; MIC (E. cloacae Nek 39; [15]): 3.12 µg/mL; MIC (Ps. cepacia 23; Burkholderia cepacia, 23, 16 h): 3.12 µg/mL

Reference: patent publication US5061794A, “Cephalosporin derivatives, and antibacterial agents” (priority 1986, dated 1991)
